Test results published in US20240166690A1, “MULTI-TARGET CY[…] FOR OPIOID/NEUROPEPTIDE FF RECEPTORS, AND PREPARATION THEREFOR AND APPLICATION THEREOF” (SHANGHAI TIANCI LIFE SCIENCE DEVELOPMENT CO., LTD., priority 2021, published 2024).
Bridge positions count the residues as written; N and C are the ends. Square brackets hold non-standard residues; d marks the D form. Ends that are not written are not given here. Peptide text beside a SMILES is read from it. NMeF = CN[C@@H](Cc1ccccc1)C(=O)O; dOrn = NCCC[C@@H](N)C(=O)O; dDab = NCC[C@@H](N)C(=O)O

Experiments:
[1] = system: Kunming male mice; assay: Photothermal tail flick experiment, oral administration; type: in vivo; details: tail flick; for Maximum analgesic time: oral administration at the maximum analgesic dose
Experimental: (§1) Two administration methods were used: peripheral subcutaneous administration and oral administration. Subsequently, the analgesic activity of the drug was studied using an acute pain model of photothermal tail flick in mice.
1 mL sterile syringe was used for oral administration (p.o.), the pinhead was replaced with a mouse gastric lavage needle, and […] of the drug was orally administered. The skin on the neck and back of the mouse was grasped with the left hand with the abdomen facing upwards. Noted that the mouse's entire body was fixed to vertical, which was beneficial for oral gavage. A gastric lavage needle (No. 12 needle and 1 mL syringe) was held in the right hand and was inserted to the esophagus along the upper jaw which is pressed the tongue tightly from the corner of the mouse's mouth. Gastric lavage fluid can be injected when the needle inserted 2.5 cm. The inserting length of the needle should be determined through practice in advance, as there is a sense of falling into a hole after the needle is inserted. If the injection position was appropriate, it should be very smooth. […] This can cause immediate death of the mouse after gavage.
(§2) The photothermal tail flick experiment is based on the experimental method summarized by D'Amour and Smith to optimize the experimental parameters. The experiment selected Kunming male mice with body weigh 21±2 g, and ambient temperature controlled at 22±2° C. The experimental mice were allowed to drink water freely and were moved from the breeding room to the experimental area for adaptation for 30 minutes before starting the experiment. Then the mice were grab with the right hand and the tail hang freely. Then the mice's tail were placed on a radiation light source, 2-3 mm away from the mice tail. The intensity of radiation heat was adjusted to the tail flick time of mice being 3-5 s, which is the basic pain threshold of photothermal tail flick. The irradiation time of the mice tail should not exceed 10 s to prevent scalding of the mice tail, which was the maximum latency for photothermal tail flick. After administration, time points of 10, 20, 30, 45, 60, 90, 120, 180, 240, 300, 360, and 420 minutes were selected to measure the tail flick latency of mice after administration.
(§3) The analgesic effect of drugs was generally evaluated using the maximum analgesic effect MPE (%), MPE (%)=100×[(pain threshold after administration−basic pain threshold)/(10 seconds−basic pain threshold)]. 50% effective dose (ED50) refers to the corresponding drug dose that causes a 50% effect. ED50 and 95% confidence interval were calculated using MPE (%) and the drug concentration that achieves the maximum analgesic effect MPE (%) by the statistical software GraphPad Prism 5.0. The difference in analgesic effects was statistically analyzed using one-way ANOVA (Dunnett test), *P<0.05, **P<0.01, and ***P<0.001 indicated significance of the difference between the group with only drug injected and the saline group.

[2] = molecular target: T1, Delta-opioid receptor (Homo sapiens, UniProt P41143); assay: cAMP functional experiment, Delta-opioid receptor (forskolin-induced cAMP accumulation); type: cell-based
T1 construct: expressed in transfected cells; host or cells: HEK293
T1 sequence (P41143 whole entry): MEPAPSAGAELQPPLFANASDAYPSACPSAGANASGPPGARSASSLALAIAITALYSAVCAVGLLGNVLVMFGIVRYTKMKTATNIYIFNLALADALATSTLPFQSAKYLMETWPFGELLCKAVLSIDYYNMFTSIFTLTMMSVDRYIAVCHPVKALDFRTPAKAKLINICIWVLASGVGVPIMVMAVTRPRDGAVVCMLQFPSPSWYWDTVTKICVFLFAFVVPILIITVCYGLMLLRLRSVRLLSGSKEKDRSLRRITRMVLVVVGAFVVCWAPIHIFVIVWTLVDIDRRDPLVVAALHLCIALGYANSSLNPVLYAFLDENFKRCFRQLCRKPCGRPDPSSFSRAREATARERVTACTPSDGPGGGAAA
Experimental: (§4) The agonistic activity of the cyclopeptide molecule of the present invention against Mu-opioid receptor, Delta-opioid receptor, Kappa-opioid receptor, NPFF1 receptor and NPFF2 receptor was evaluated by detecting the regulation of the cyclopeptide molecule of the present invention on the intracellular accumulation of cyclic adenosine monophosphate (cAMP) induced by Forskolin in HEK293 cells stably expressing these five receptors. The experimental method was: the cells were seeded in 24 well plates with 120000 cells per well, and were cultured for more than 20 hours. At the beginning of the experiment, the culture medium in the culture dish was suck out, and then 500 μL of preheated serum-free medium containing 1 mM of IBMX was added, the mixture was incubated at 37° C. for 10 minutes. Then each 10 μL of the drug to be tested and 10 μM of forskolin (final concentration) were added to each well. The mixture was incubated at 37° C. for 30 minutes. After incubation, all the liquid was suck out from the culture dish, 500 μL of 0.2 N hydrochloric acid was added to each well, the mixture was incubated at room temperature for 30 minutes to promote cell lysis. After lysis was complete, NaOH was added to neutralize the hydrochloric acid solution used for lysis. Then all the liquid was suck out from the culture dish into centrifuge tubes, the liquid was centrifuged at 12000 rpm for 2 minutes. 50 μL was taken to a clean centrifuge tube, 100 μL of 60 μg/μL PKA was added, and 100 μL of TE cAMP buffer was added to the blank control group (B). Another 50 μL of 0.5 μ Ci[^3H]cAMP was added to each of the above centrifuge tubes, the mixture was quickly mixed and incubated at 4° C. for more than 2 hours. After incubation, another 100 μL of activated carbon suspension was added to each tube, the mixture was vortex agitated evenly, placed in an ice bath for 1 minute, centrifuged at 5000 rpm for 4 minutes. 200 μL of supernatant after centrifugation in each tube was suck out to a 24 well plate, with an additional 700 μL of scintillator liquid added per well, then the 24 well plate was sealed with adhesive film, placed for 3 hours, then placed on the scintillation instrument for measurement.
(§5) The inhibitory effect of cAMP was represented by the percentage (% control) of drug inhibition of intracellular cAMP accumulation induced by Forskolin, wherein % control=(cAMP content when treated with Forskolin−cAMP content when Forskolin co-treated with the test drug)/(cAMP content when treated with Forskolin−cAMP content when treated with solvent). The related % control data was represented by mean±S.E.M. The dose-effect relationship of the drug was statistically analyzed using a nonlinear regression model, and the IC50 values of the multi-target cyclopeptide molecule on inhibition of Forskolin induced intracellular cAMP accumulation were calculated using the statistical software GraphPad Prism version 5.0.

[3] = molecular target: T2, Kappa-opioid receptor (Homo sapiens, UniProt P41145); assay: cAMP functional experiment, Kappa-opioid receptor (forskolin-induced cAMP accumulation); type: cell-based
T2 construct: expressed in transfected cells; host or cells: HEK293
T2 sequence (P41145 whole entry): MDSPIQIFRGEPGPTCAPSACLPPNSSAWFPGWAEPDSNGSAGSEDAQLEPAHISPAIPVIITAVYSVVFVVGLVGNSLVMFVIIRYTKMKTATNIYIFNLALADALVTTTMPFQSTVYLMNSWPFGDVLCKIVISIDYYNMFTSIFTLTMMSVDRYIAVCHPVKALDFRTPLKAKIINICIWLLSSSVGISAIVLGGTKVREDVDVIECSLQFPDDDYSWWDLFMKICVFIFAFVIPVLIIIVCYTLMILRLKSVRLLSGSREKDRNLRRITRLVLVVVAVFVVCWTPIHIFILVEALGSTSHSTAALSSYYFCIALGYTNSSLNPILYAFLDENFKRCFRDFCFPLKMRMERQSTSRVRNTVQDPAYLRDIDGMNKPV
Experimental: as §4, §5

[4] = molecular target: T3, Mu-opioid receptor (Homo sapiens, UniProt P35372); assay: cAMP functional experiment, Mu-opioid receptor (forskolin-induced cAMP accumulation); type: cell-based
T3 construct: expressed in transfected cells; host or cells: HEK293
T3 sequence (P35372 whole entry): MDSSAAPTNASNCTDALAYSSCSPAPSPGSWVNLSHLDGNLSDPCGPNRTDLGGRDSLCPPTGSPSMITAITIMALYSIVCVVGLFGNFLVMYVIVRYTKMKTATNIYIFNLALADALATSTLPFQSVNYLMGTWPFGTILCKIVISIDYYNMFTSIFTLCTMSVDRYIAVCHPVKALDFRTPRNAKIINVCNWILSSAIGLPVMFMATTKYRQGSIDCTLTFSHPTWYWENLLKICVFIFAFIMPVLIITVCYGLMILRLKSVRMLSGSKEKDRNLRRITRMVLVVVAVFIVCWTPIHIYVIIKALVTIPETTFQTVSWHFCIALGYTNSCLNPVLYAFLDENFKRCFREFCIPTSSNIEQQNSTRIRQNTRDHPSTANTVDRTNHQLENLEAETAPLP
Experimental: as §4, §5

[5] = molecular target: T4, NPFF2 receptor (Homo sapiens, UniProt Q9Y5X5); assay: cAMP functional experiment, NPFF2 receptor (forskolin-induced cAMP accumulation); type: cell-based
T4 construct: expressed in transfected cells; host or cells: HEK293
T4 sequence (Q9Y5X5 whole entry): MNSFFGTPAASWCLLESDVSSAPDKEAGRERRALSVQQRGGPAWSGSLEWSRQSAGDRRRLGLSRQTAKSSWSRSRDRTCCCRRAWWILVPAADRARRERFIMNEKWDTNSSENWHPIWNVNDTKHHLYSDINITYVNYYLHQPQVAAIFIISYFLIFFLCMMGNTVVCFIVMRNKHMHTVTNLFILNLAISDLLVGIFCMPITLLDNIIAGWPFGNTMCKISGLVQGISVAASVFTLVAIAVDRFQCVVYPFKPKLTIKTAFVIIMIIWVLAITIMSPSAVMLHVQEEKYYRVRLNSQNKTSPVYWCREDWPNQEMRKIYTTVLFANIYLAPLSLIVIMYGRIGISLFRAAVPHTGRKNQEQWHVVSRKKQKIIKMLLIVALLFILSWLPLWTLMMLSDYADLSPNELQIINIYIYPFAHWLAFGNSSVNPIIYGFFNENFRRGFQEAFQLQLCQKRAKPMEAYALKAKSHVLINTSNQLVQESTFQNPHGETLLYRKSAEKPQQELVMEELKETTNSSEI
Experimental: as §4, §5

[6] = molecular target: T5, NPFF1 receptor (Homo sapiens, UniProt Q9GZQ6); assay: cAMP functional experiment, NPFF1 receptor (forskolin-induced cAMP accumulation); type: cell-based
T5 construct: expressed in transfected cells; host or cells: HEK293
T5 sequence (Q9GZQ6 whole entry): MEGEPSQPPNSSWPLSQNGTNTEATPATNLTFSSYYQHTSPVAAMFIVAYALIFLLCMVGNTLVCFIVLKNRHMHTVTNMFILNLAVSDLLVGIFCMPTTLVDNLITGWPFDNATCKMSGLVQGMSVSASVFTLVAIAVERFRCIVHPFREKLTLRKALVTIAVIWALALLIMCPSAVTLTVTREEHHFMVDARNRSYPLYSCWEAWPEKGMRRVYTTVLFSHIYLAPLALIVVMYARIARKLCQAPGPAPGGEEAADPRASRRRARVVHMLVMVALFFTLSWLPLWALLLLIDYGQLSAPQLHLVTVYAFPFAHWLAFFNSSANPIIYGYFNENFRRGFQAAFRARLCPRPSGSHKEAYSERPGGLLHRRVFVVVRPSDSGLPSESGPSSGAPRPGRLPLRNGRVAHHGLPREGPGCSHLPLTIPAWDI
Experimental: as §4, §5

[7] = system: Kunming male mice; assay: Photothermal tail flick experiment, subcutaneous injection; type: in vivo; details: for ED50 value (95% confidence interval), analgesic activity: photothermal tail flick
Experimental: as §1
Subcutaneous administration on the back was chosen for subcutaneous administration (s.c.). A sterile 1 mL syringe was used and the drug with the volume of 0.1 mL/10 g was injected for administration. The back skin was grasped with the right hand, the needle was tilted in, and the drug was injected subcutaneously into the mouse's back. After the needle was inserted, shook it left and right, and observe to confirm that the needle had indeed entered the subcutaneous area to prevent the needle from puncturing the skin and leaking the drug.
as §2, §3

| Molecule | Maximum analgesic time [1] [min] | analgesic duration ([1]; oral administration) [min] | IC50 [2] [nM] | IC50 [3] [nM] | IC50 [4] [nM] | IC50 [5] [nM] | IC50 [6] [nM] | ED50 value (95% confidence interval), analgesic activity [7] | oral analgesic activity ([1]; oral administration) | effective analgesic actuation duration ([7]; tail flick) [min] |
| --- | --- | --- | --- | --- | --- | --- | --- | --- | --- | --- |
| CN1C(=O)CNC(=O)[C@H](NC(=O)[C@@H](N)Cc2ccc(O)cc2)CCCCNC(=O)CC[C@@H](C(=O)N2CCC[C@H]2C(=O)N[C@@H](CCC(N)=O)C(=O)N[C@@H](CCCNC(=N)N)C(=O)N[C@@H](Cc2ccccc2)C(N)=O)NC(=O)[C@@H]1Cc1ccccc1 [Compound 2, Tyr-c^[2,5][D-Lys-Gly-NMe-Phe-Glu]-Pro-Gln-Arg-Phe-NH2] (H-Y[dK]G[NMeF]EPQRF-NH2; lactam 2-5) | 30 | 240 | 36.4 | 29.5 | 48.8 | 83.1 | 189 | 17.9 (15.3 to 20.9) μg/kg |  |  |
| CN1C(=O)CNC(=O)[C@@H](NC(=O)[C@@H](N)Cc2ccc(O)cc2)CCCCNC(=O)C[C@@H](C(=O)N2CCC[C@H]2C(=O)N[C@@H](CCC(N)=O)C(=O)N[C@@H](CCCNC(=N)N)C(=O)N[C@@H](Cc2ccccc2)C(N)=O)NC(=O)[C@@H]1Cc1ccccc1 [Compound 3, Tyr-c^[2,5][Lys-Gly-NMe-Phe-Asp]-Pro-Gln-Arg-Phe-NH2] (H-YKG[NMeF]DPQRF-NH2; lactam 2-5) | 20 | 240 | 28.2 | 320 | 70.7 | 112 | 28.9 | 25.4 (22.1 to 29.2) μg/kg |  |  |
| CN1C(=O)CNC(=O)[C@@H](NC(=O)[C@@H](N)Cc2ccc(O)cc2)CCCCNC(=O)C[C@H](C(=O)N2CCC[C@H]2C(=O)N[C@@H](CCC(N)=O)C(=O)N[C@@H](CCCNC(=N)N)C(=O)N[C@@H](Cc2ccccc2)C(N)=O)NC(=O)[C@@H]1Cc1ccccc1 [Compound 4, Tyr-c^[2,5][Lys-Gly-NMe-Phe-D-Asp]-Pro-Gln-Arg-Phe-NH2] (H-YKG[NMeF][dD]PQRF-NH2; lactam 2-5) | 20 | 240 | 923 |  | 166 | 81.5 | 104 | 30.3 (19.4 to 47.1) μg/kg |  |  |
| CN1C(=O)CNC(=O)[C@H](NC(=O)[C@@H](N)Cc2ccc(O)cc2)CCCCNC(=O)C[C@H](C(=O)N2CCC[C@H]2C(=O)N[C@@H](CCC(N)=O)C(=O)N[C@@H](CCCNC(=N)N)C(=O)N[C@@H](Cc2ccccc2)C(N)=O)NC(=O)[C@@H]1Cc1ccccc1 [Compound 5, Tyr-c^[2,5][D-Lys-Gly-NMe-Phe-D-Asp]-Pro-Gln-Arg-Phe-NH2] (H-Y[dK]G[NMeF][dD]PQRF-NH2; lactam 2-5) | 20 | 240 | 345 |  | 586 | 190 | 528 | 23.2 (19.1 to 28.2) μg/kg |  |  |
| CN1C(=O)CNC(=O)[C@H](NC(=O)[C@@H](N)Cc2ccc(O)cc2)CC(=O)NCCCC[C@@H](C(=O)N2CCC[C@H]2C(=O)N[C@@H](CCC(N)=O)C(=O)N[C@@H](CCCNC(=N)N)C(=O)N[C@@H](Cc2ccccc2)C(N)=O)NC(=O)[C@@H]1Cc1ccccc1 [Compound 6, Tyr-c^[2,5][D-Asp-Gly-NMe-Phe-Lys]-Pro-Gln-Arg-Phe-NH2] (H-Y[dD]G[NMeF]KPQRF-NH2; lactam 2-5) | 30 | 240 | 74.2 | 58 | 66.3 | 303 | 222 | 15.8 (14.6 to 17.1) μg/kg |  |  |
| CN1C(=O)CNC(=O)[C@H](NC(=O)[C@@H](N)Cc2ccc(O)cc2)CCCNC(=O)C[C@@H](C(=O)N2CCC[C@H]2C(=O)N[C@@H](CCC(N)=O)C(=O)N[C@@H](CCCNC(=N)N)C(=O)N[C@@H](Cc2ccccc2)C(N)=O)NC(=O)[C@@H]1Cc1ccccc1 [Compound 8, Tyr-c^[2,5][D-Orn-Gly-NMe-Phe-Asp]-Pro-Gln-Arg-Phe-NH2] (H-Y[dOrn]G[NMeF]DPQRF-NH2; lactam 2-5) | 30 | 240 | 659 | 139 | 168 | 133 | 439 | 15.0 (13.8 to 16.4) μg/kg |  |  |
| CN1C(=O)CNC(=O)[C@H](NC(=O)[C@@H](N)Cc2ccc(O)cc2)CCNC(=O)C[C@@H](C(=O)N2CCC[C@H]2C(=O)N[C@@H](CCC(N)=O)C(=O)N[C@@H](CCCNC(=N)N)C(=O)N[C@@H](Cc2ccccc2)C(N)=O)NC(=O)[C@@H]1Cc1ccccc1 [Compound 9, Tyr-c^[2,5][D-Dab-Gly-NMe-Phe-Asp]-Pro-Gln-Arg-Phe-NH2] (H-Y[dDab]G[NMeF]DPQRF-NH2; lactam 2-5) | 30 | 240 | 95.1 | 71.2 | 37.9 | 265 | 180 | 16.0 (14.4 to 17.6) μg/kg |  |  |
| CN1C(=O)CNC(=O)[C@H](NC(=O)[C@@H](N)Cc2ccc(O)cc2)CCCCNC(=O)C[C@@H](C(=O)NCC(=O)N[C@@H](CCC(N)=O)C(=O)N[C@@H](CCCNC(=N)N)C(=O)N[C@@H](Cc2ccccc2)C(N)=O)NC(=O)[C@@H]1Cc1ccccc1 [Compound 12, Tyr-c^[2,5][D-Lys-Gly-NMe-Phe-Asp]-Gly-Gln-Arg-Phe-NH2] (H-Y[dK]G[NMeF]DGQRF-NH2; lactam 2-5) | 20 | 240 | 45.2 | 97.4 | 82.6 | 93 | 58.6 |  |  |  |
| Tyr-D-Ala-Gly-NMe-Phe-Gly-Pro-Gln-Arg-Phe-NH2 (Y[dA]G[NMeF]GPQRF-NH2) [DN-9, multi-target parent peptide for opioid receptor/neuropeptide FF receptors, chemical template, reference compound] | 20 | 90 |  |  |  |  |  | 228 µg/kg | only produces strong analgesic activity at a high-dose of 40 mg/kg | 90 |
